Columns and labels:
M2 macrophages [1] = experiment: Flow cytometry of FITC-conjugated melittin on M0, M1 and M2 macrophages; assay type: cell-based, human; conditions: 50 nM FITC-conjugated melittin, 1 hour; THP-1 derived M0, M1, M2 macrophages
Procedure: To confirm whether the melittin fabricated in Example 1 specifically bound to M2 tumor-associated macrophages (M2 TAMs), a human monocyte cell line THP-1 was differentiated into M0, M1, and M2 macrophages, and treated with FITC-conjugated melittin, and then confirmed by flow cytometry. Specifically, THP-1 cells were treated with 100 nM phorbol 12-myristate 13-acetate (PMA) at 37° C. for 24 hours (M0 macrophages), and the differentiated M0 macrophages were incubated with 100 nM LPS and 20 ng/ml IFN-γ at 37° C. for 72 hours to be differentiated into M1 macrophages (M1), and incubated with 20 ng/ml IL-4 and IL-13 at 37° C. for 72 hours to be differentiated into M2 macrophages (M2). The differentiated cells were treated with 50 nM FITC-conjugated melittin for 1 hour, detected with BD FACS CantoII instruments (BD biosciences, San Jose, CA, USA), and analyzed with FlowJo software (BD biosciences).

M2 macrophages [2] = experiment: CCK-8 cell viability in M2 macrophages (control, ITGB2 knockdown, ITGB2 antibody pretreatment); assay type: cell-based, human; conditions: Melittin-dKLA 1 μM, 24 hours
Procedure: As a cell model used to confirm whether apoptosis was induced through ITGB2 in M2 macrophages, a cell model in which the expression of ITGB2 was suppressed in M2 macrophages was fabricated using Crispr/cas9. Specifically, cells differentiated into M2 macrophages were cultured in an Opti-MEM medium. The Crispr/cas9 was mixed with Cas9 protein V2 (Thermo Fisher scientific) and gRNA (Genscript; ITGB2; Table 7) of a CRISPRMAX™ Reagent kit (Thermo Fisher scientific) and a Cas9 Plus™ Reagent (Thermo Fisher scientific), and a CRISPRMAX™ Reagent was diluted in the Opti-MEM medium, mixed together, and reacted for 5 to 10 minutes, and then added to cells differentiated into M2 macrophages and cultured at 37° C. for 2 to 3 days. Thereafter, the mRNA expression level of ITGB2 was confirmed.
To confirm whether Melittin-dKLA bound to ITGB2 to induce apoptosis in M2 macrophages, Melittin-dKLA (1 μM) was treated for 24 hours to M2 macrophages in which ITGB2 expression was suppressed by Crispr/cas9 fabricated in Example 7-1 above, and cell viability was analyzed using a CCK-8 assay. Specifically, Melittin-dKLA (1 μM) reacted with ITGB2 knockdown macrophages fabricated in Example 7-1 above for 1 hour. After the reaction, the medium was replaced and cultured at 37° C. for 24 hours. […] Absorbance was measured at 450 nm using a microplate reader (Molecular Devices). […]

| Molecule | FITC-positive cells (M2 macrophages [1]) | cell viability (M2 macrophages [2]; M2 macrophages in which ITGB2 was knocked down (Crispr/cas9)) | cell viability (M2 macrophages [2]; control M2 macrophages) |
| --- | --- | --- | --- |
| CC[C@H](C)[C@H](NC(=O)CN)C(=O)NCC(=O)N[C@@H](C)C(=O)N[C@H](C(=O)N[C@@H](CC(C)C)C(=O)N[C@@H](CCCCN)C(=O)N[C@H](C(=O)N[C@@H](CC(C)C)C(=O)N[C@H](C(=O)N[C@H](C(=O)NCC(=O)N[C@@H](CC(C)C)C(=O)N1CCC[C@H]1C(=O)N[C@@H](C)C(=O)N[C@@H](CC(C)C)C(=O)N[C@H](C(=O)N[C@@H](CO)C(=O)N[C@@H](Cc1c[nH]c2ccccc12)C(=O)N[C@H](C(=O)N[C@@H](CCCCN)C(=O)N[C@@H](CCCNC(=N)N)C(=O)N[C@@H](CCCCN)C(=O)N[C@@H](CCCNC(=N)N)C(=O)N[C@@H](CCC(N)=O)C(=O)N[C@@H](CCC(N)=O)C(N)=O)[C@@H](C)CC)[C@@H](C)CC)[C@@H](C)O)[C@@H](C)O)C(C)C)C(C)C [melittin, Melittin] | significantly increased in M2 macrophages | – | – |
| Peptide with linker and drug dKLA attached to melittin, SEQ ID NO: 5, GIGAVLKVLTTGLPALISWIKRKRQQ-GGGGS-d[KLAKLAKKLAKLAK] [Melittin-dKLA] | – | decrease in cell viability by Melittin-dKLA was suppressed | significantly reduced |
